In the NIST ThermoML archive (doi:10.1021/je101361u):
± gives the expanded uncertainty stated by the source.

Experiment: xn = mol fraction of the nth substance listed
Details: 101.3 kPa, Liquid

COCCOC [1,2-dimethoxyethane] + ClCCCl
mass density [kg/m3]
Details | 283.15 K | 288.15 K | 293.15 K | 298.15 K | 303.15 K | 308.15 K
x2 = 0.0251 | 885.37 ± 0.49 | 879.96 ± 0.49 | 874.49 ± 0.5 | 868.99 ± 0.51 | 863.45 ± 0.51 | 857.87 ± 0.52
x2 = 0.05 | 893.06 ± 0.48 | 887.61 ± 0.48 | 882.11 ± 0.49 | 876.59 ± 0.49 | 871.02 ± 0.5 | 865.42 ± 0.51
x2 = 0.0501 | 893.14 ± 0.48 | 887.69 ± 0.48 | 882.19 ± 0.49 | 876.66 ± 0.49 | 871.08 ± 0.5 | 865.47 ± 0.51
x2 = 0.075 | 900.9 ± 0.46 | 895.43 ± 0.47 | 889.9 ± 0.47 | 884.34 ± 0.48 | 878.74 ± 0.49 | 873.1 ± 0.49
x2 = 0.1 | 908.78 ± 0.45 | 903.28 ± 0.45 | 897.71 ± 0.46 | 892.12 ± 0.47 | 886.49 ± 0.47 | 880.82 ± 0.48
x2 = 0.1552 | 926.63 ± 0.42 | 921.05 ± 0.42 | 915.42 ± 0.43 | 909.76 ± 0.44 | 904.05 ± 0.44 | 898.32 ± 0.45
x2 = 0.2001 | 941.4 ± 0.39 | 935.76 ± 0.4 | 930.07 ± 0.41 | 924.35 ± 0.41 | 918.59 ± 0.42 | 912.79 ± 0.42
x2 = 0.2501 | 958.23 ± 0.37 | 952.53 ± 0.37 | 946.77 ± 0.38 | 940.98 ± 0.39 | 935.15 ± 0.39 | 929.28 ± 0.4
x2 = 0.3002 | 975.46 ± 0.34 | 969.68 ± 0.35 | 963.86 ± 0.35 | 957.99 ± 0.36 | 952.09 ± 0.37 | 946.16 ± 0.37
x2 = 0.35 | 992.96 ± 0.32 | 987.11 ± 0.32 | 981.21 ± 0.33 | 975.28 ± 0.34 | 969.3 ± 0.34 | 963.29 ± 0.35
x2 = 0.4001 | 1010.98 ± 0.32 | 1005.05 ± 0.31 | 999.08 ± 0.31 | 993.07 ± 0.31 | 987.02 ± 0.32 | 980.93 ± 0.32
x2 = 0.45 | 1029.37 ± 0.34 | 1023.36 ± 0.33 | 1017.3 ± 0.32 | 1011.21 ± 0.32 | 1005.09 ± 0.31 | 998.92 ± 0.3
x2 = 0.5 | 1048.22 ± 0.36 | 1042.13 ± 0.35 | 1035.99 ± 0.34 | 1029.82 ± 0.33 | 1023.61 ± 0.33 | –
x2 = 0.5001 | 1048.32 ± 0.36 | 1042.23 ± 0.35 | 1036.09 ± 0.34 | 1029.91 ± 0.33 | 1023.7 ± 0.33 | –
x2 = 0.55 | 1067.59 ± 0.38 | 1061.41 ± 0.37 | 1055.19 ± 0.36 | 1048.93 ± 0.36 | 1042.63 ± 0.35 | –
x2 = 0.6001 | 1087.41 ± 0.4 | 1081.15 ± 0.39 | 1074.83 ± 0.39 | 1068.48 ± 0.38 | 1062.09 ± 0.37 | –
x2 = 0.65 | 1107.73 ± 0.43 | 1101.37 ± 0.42 | 1094.96 ± 0.41 | 1088.51 ± 0.4 | 1082.03 ± 0.39 | –
x2 = 0.7 | 1128.6 ± 0.45 | 1122.14 ± 0.44 | 1115.63 ± 0.43 | 1109.08 ± 0.42 | 1102.5 ± 0.41 | –
x2 = 0.75 | 1150.14 ± 0.48 | 1143.57 ± 0.47 | 1136.95 ± 0.46 | 1130.3 ± 0.45 | 1123.6 ± 0.44 | –
x2 = 0.8 | 1172.13 ± 0.51 | 1165.45 ± 0.5 | 1158.71 ± 0.49 | 1151.94 ± 0.48 | 1145.15 ± 0.47 | –
x2 = 0.85 | 1195.03 ± 0.54 | 1188.23 ± 0.53 | 1181.37 ± 0.52 | 1174.49 ± 0.51 | 1167.57 ± 0.5 | –
x2 = 0.9 | 1218.48 ± 0.57 | 1211.55 ± 0.55 | 1204.56 ± 0.54 | 1197.56 ± 0.53 | 1190.51 ± 0.52 | –
x2 = 0.925 | 1230.36 ± 0.58 | 1223.37 ± 0.57 | 1216.32 ± 0.56 | 1209.25 ± 0.55 | 1202.14 ± 0.54 | –
x2 = 0.975 | 1254.94 ± 0.61 | 1247.8 ± 0.6 | 1240.62 ± 0.59 | 1233.42 ± 0.58 | 1226.18 ± 0.57 | –
